Structures can show the parent of a compound that is named as a salt.
What was measured:
[1] = tested on: T1, LacHU1; assay: initial-rate oxidation assay, Michaelis-Menten fit; type: biochemical, Alternaria sp. HU; conditions: free enzyme; apparent constant; read-out: Kinetic Parameters / KM, μM / LacHU1
T1 construct: native secreted enzyme purified from culture liquid; signal peptide of 18 residues
Description: initial-rate oxidation assay, Michaelis-Menten fit on LacHU1

[2] = tested on: T2, LacHU2; assay: initial-rate oxidation assay, Michaelis-Menten fit; type: biochemical, Alternaria sp. HU; conditions: free enzyme; apparent constant; read-out: Kinetic Parameters / KM, μM / LacHU2
T2 construct: native secreted enzyme purified from culture liquid; signal peptide of 18 residues
Description: initial-rate oxidation assay, Michaelis-Menten fit on LacHU2

Compound | Km [1] | Km [2]
OCCN1c2ccccc2Oc2ccccc21 [2-(10H-phenoxazin-10-yl)ethanol] | 40 ± 10 µM | 200 ± 50 µM
CCn1c(=NN=c2sc3cc(S(=O)(=O)O)ccc3n2CC)sc2cc(S(=O)(=O)O)ccc21 [ABTS, 2,2’-azino-bis(3-ethylbenzothiazoline-6-sulfonic acid) diammonium salt] | 60 ± 10 µM | 5600 µM
Oc1ccccc1O [Catechol] |  | 20000 µM
O=C(/C=C/c1ccc(O)c(O)c1)O[C@@H]1C[C@](O)(C(=O)O)C[C@@H](O)[C@H]1O [Chlorogenic acid] |  | 90 ± 40 µM
COc1cc(/C=C/C(=O)O)ccc1O [Ferulic acid] | 50 ± 4 µM | 230 ± 30 µM
Oc1ccc(O)cc1 [Hydroquinone] |  | 13000 µM
CN(C)CCCN1c2ccccc2Sc2ccccc21 [Promazine hydrochloride] |  | 2600 µM
O=c1c(O)c(-c2ccc(O)c(O)c2)oc2cc(O)cc(O)c12 [Quercetin] | 2 ± 0.4 µM | 
Nc1ccc(N)cc1 [p-Phenylenediamine] |  | 3600 µM

Second part, led by results:

Km [1] | Compound | Km [2]
10 ± 2 µM | COc1cccc(OC)c1O [2,6-DMP] | 4300 µM
50 ± 3 µM | O=C(O)/C=C/c1ccc(O)c(O)c1 [Caffeic acid] | 400 ± 30 µM
15 ± 1 µM | O=c1c(O)c(-c2ccc(O)c(O)c2)oc2cc(O)ccc12 [Fisetin] | 
2 ± 0.3 µM | O=c1c(O)c(-c2cc(O)c(O)c(O)c2)oc2cc(O)cc(O)c12 [Myricetin] | 
1 ± 0.1 µM | COc1cc(C=NN=Cc2cc(OC)c(O)c(OC)c2)cc(OC)c1O [Syringaldazine] | 
40 ± 0.5 µM | COc1cc(C(=O)O)cc(OC)c1O [Syringic acid] | 
